According to US5010095A, “N-(W-substituted alkyl)-'-(imidazol-4-yl)alkyl)guanidine” (Cedona Pharmaceuticals B.V., priority 1986, dated 1991):
“Also recorded” adds a separate entry of the source. Like-named read-outs stand apart in the source and are kept apart here.

Tests used:
[1] = molecular target: T1, histamine H2 (guinea-pig gastric fundus) (Cavia porcellus, UniProt P47747); test: Histamine H2-activity, acid secretion of the isolated gastric fundus of the guinea-pig
T1 construct: acid secretion of the isolated gastric fundus of the guinea-pig; from tissue; host or cells: guinea-pig gastric fundus (isolated organ)
T1 sequence (P47747 whole entry): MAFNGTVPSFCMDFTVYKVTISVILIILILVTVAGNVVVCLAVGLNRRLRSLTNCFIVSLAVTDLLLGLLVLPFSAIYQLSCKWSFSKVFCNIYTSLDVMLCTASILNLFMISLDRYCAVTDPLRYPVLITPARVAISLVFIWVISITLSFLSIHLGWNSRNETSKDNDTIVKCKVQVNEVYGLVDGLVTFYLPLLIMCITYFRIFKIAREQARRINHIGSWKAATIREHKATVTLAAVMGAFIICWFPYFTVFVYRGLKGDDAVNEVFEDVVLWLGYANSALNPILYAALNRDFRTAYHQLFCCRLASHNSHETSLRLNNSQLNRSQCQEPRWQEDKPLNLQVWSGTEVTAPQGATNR
From the text: (§1) The values for the H1 -activity given are the mean of at least two experiments in quadruplicate, while the values for the H2 -activity result from at least two experiments in duplicate.
(§2) Guinea-pig gastric acid secretion (H2)

[2] = molecular target: T2, histamine H2 (guinea-pig right atrium) (Cavia porcellus, UniProt P47747); test: Histamine H2-activity, guinea-pig right atrium
T2 construct: from tissue; host or cells: guinea-pig right atrium (isolated organ)
T2 sequence (P47747 whole entry): as above
From the text: as §1
(§3) Guinea-pig right atrium H2
(§4) Ther., 19, 545-550 (1984).

[3] = molecular target: T3, histamine H1 (guinea-pig ileum) (Cavia porcellus, UniProt P31389); test: Histamine H1-activity, guinea-pig ileum
T3 construct: from tissue; host or cells: guinea-pig ileum (isolated organ)
T3 sequence (P31389 whole entry): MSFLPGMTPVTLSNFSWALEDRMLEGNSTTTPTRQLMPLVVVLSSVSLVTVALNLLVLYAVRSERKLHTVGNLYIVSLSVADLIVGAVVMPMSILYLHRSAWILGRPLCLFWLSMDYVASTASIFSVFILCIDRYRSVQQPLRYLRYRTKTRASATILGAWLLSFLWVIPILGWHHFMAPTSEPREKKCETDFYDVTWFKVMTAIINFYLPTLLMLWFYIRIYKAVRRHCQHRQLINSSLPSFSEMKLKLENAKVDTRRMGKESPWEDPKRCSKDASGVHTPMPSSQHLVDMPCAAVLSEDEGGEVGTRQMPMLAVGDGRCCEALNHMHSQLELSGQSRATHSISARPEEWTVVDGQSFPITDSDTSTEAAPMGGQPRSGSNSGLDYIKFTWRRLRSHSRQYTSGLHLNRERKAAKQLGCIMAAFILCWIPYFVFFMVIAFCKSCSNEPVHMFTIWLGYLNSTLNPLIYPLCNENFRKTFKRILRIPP
From the text: as §1

histamine H1 = molecular target: T4, histamine H1 (Cavia porcellus, UniProt P31389); test: Histamine H1-activity, overall discussion (ileum/trachea); set-up: species or system guinea-pig; settings: structure-activity discussion
T4 construct: functional contraction
T4 sequence (P31389 whole entry): as above
Method: The results of pharmacological tests with said new compounds are summarized in Table A (H1 -activity) and Table B (H2 -activity). The values for the H1 -activity given are the mean of at least two experiments in quadruplicate, while the values for the H2 -activity result from at least two experiments in duplicate.
(§5) Male guinea-pigs (350-500 g) were killed by a blow on the head and the trachea removed. Single segments were cut from the trachea, loaded with 0.4 g and placed in an organ bath (35° C.) containing 120 mM NaCl, 6 mM KCl, 1 mM MgSO4, 2.5 mM CaCl2, 1 mM NaH2 PO4, […] and 6 mM glucose. The organ bath was gassed with oxygen containing 5% CO2. PD2, intrinsic acitivity and antagonistic activity of the test compounds were determined from isotonically recorded, cumulative dose-response curves.

histamine H2 [4] = molecular target: T5, histamine H2 (Cavia porcellus, UniProt P47747); test: Histamine H2-activity, overall discussion (atrium/gastric fundus); set-up: species or system guinea-pig; settings: atrium and fundus; structure-activity discussion
T5 construct: functional chronotropy and acid secretion
T5 sequence (P47747 whole entry): as the sequence (P47747 whole entry) above
From the text: as §1, §3, §4, §2

[5] = molecular target: T6, histamine H1 (guinea-pig trachea) (Cavia porcellus, UniProt P31389); test: Histamine H1-activity, guinea-pig trachea; settings: for Kb: ± 0,2, mean of at least two experiments in quadruplicate
T6 construct: Single segments were cut from the trachea; from tissue; host or cells: guinea-pig trachea (isolated segments)
T6 sequence (P31389 whole entry): as the sequence (P31389 whole entry) above
Method: as §1, §5

histamine H2 [6] = settings: cited from earlier work
[7] = guinea-pig gastric fundus, ±0,2, at least two experiments in duplicate
[8] = read-out: Histamine H2-activity, α (intrinsic activity), guinea-pig gastric fundus, at least two experiments in duplicate
[9] = guinea-pig right atrium, ±0,1, at least two experiments in duplicate
[10] = read-out: Histamine H2-activity, α (intrinsic activity), guinea-pig right atrium, at least two experiments in duplicate
[11] = guinea-pig ileum, ±0,2, mean of at least two experiments in quadruplicate
[12] = guinea pig, read-out: Histamine H2-activity, gastric fundus, α (intrinsic activity)
[13] = guinea pig, read-out: Histamine H2-activity, atrium, α (intrinsic activity)
[14] = gastric fundus, versus compound I

SMILES | EC50 [1, 7] [µM] | Emax [1, 8] [%] | EC50 [2, 9] [µM] | Emax [2, 10] [%] | Kb [3, 11] [µM] | H1-activity, comparison in words (histamine H1) | H2-activity, comparison in words (histamine H2 [4]) | Kb ([5]; guinea-pig trachea) [µM] | also measured
N=C(NCCCc1c[nH]cn1)NCCSC(c1ccccc1)c1ccccc1 [Compound I, N-[2-(diphenylmethylthio)ethyl]-N'-[3-(imidazol-4-yl)propyl] guanidine] | 0.794 | 100 | 0.158 | 100 | 0.316 | – | – | – | decrease in H2-agonism, fundus, versus compound XII ([1]; fundus, extra phenyl group in compound XII): 32 fold; H2-activity on the atrium, comparison in words ([2]; guinea-pig right atrium): most potent compounds of this series on the guinea-pig right atrium
N=C(NCCCc1c[nH]cn1)NCCC(c1ccccc1)c1ccccc1 [Compound IX, N-(3.3-diphenylpropyl)-N'-[3-(imidazol-4-yl)propyl]guanidine] | – | – | 0.02 | 100 | 0.501 | Analogous results; also recorded: almost as potent H1 -antagonists as compound I | Analogous results | – | H2-activity on the atrium, comparison in words ([2]; guinea-pig right atrium): remarkable high potency on the guinea-pig right atrium; also recorded: almost as potent as impromidine on the atrium; also recorded: most potent compounds of this series on the guinea-pig right atrium
N=C(NCCCc1c[nH]cn1)NCCSC(c1ccccc1)c1ccc(F)cc1 (stereo not drawn) [Compound VI, N-[2-(α-phenyl-4-fluorobenzylthio)ethyl]-N'-[3-(imidazol-4-yl)propyl]guanidine] | 3.16 | 40 | 1.26 | 80 | 0.251 | only little or no effect at all on the H1 -antagonism | strong decrease in H2 -activity | 0.158 | –
Cc1ccccc1C(SCCNC(=N)NCCCc1c[nH]cn1)c1ccccn1 (stereo not drawn) [Compound VII, N-[3-(imidazol-4-yl)propyl]-N'-(2-[2-methyl-alpha-(2-pyridyl)benzylthio]ethyl)guanidine] | – | – | 1.26 | 80 | 0.398 | almost as potent H1 -antagonists as compound I | almost as potent H2 -antagonist as the para methyl and fluoro analogues | 1 | –
Cc1ccc(C(SCCNC(=N)NCCc2c[nH]cn2)c2ccccc2)cc1 (stereo not drawn) [Compound V] | 100 | 0 | 100 | 0 | 0.251 | Analogous results; also recorded: only little or no effect at all on the H1 -antagonism | Analogous results; also recorded: strong decrease in H2 -activity | – | –
N=C(NCCCc1c[nH]cn1)NCCN(Cc1ccccc1)c1ccccc1 [Compound XI, N-[2-(N'-benzyl-N'-phenylamino)ethyl]-N"-[3-(imidazol-4-yl)propyl]guanidine] | 0.316 | 70 | 0.398 | 100 | 0.0251 | slightly more potent H1 -antagonist than the oxygen analogue compound II; also recorded: most potent H1 -antagonists of this series of impromidine analogues | – | 0.0158 | activity relative to impromidine, gastric fundus ([1]; gastric fundus, % of the activity of impromidine): about 1%; activity relative to histamine, gastric fundus ([1]; gastric fundus, times the activity of histamine): 10 times; potency relative to histamine on the atrium, in words ([2]; atrium): about twice as potent as histamine on the atrium; activity relative to impromidine, atrium ([2]; atrium, % of the activity of impromidine): about 4%
N=C(NCC=C(c1ccccc1)c1ccccc1)NCCCc1c[nH]cn1 [Compound X] | 2.51 | 90 | 0.1 | 100 | 0.2 | almost as potent H1 -antagonists as compound I | – | 0.631 | decrease in H2-activity, atrium, on introduction of a double bond ([2]; atrium, introduction of a double bond (saturated analogue: IX)): 4 fold; H2-activity on the atrium, comparison in words ([2]; guinea-pig right atrium): most potent compounds of this series on the guinea-pig right atrium
NCCc1c[nH]cn1 [Histamine, reference compound] | – | – | – | – | – | – | – | – | Emax [1, 12]: 100%; Emax [2, 13]: 100%
N=C(NCCSC(c1ccccc1)c1ccccc1)NCCc1c[nH]cn1 [II, N-[2-(diphenylmethylthio)ethyl]-N'-[2-imidazol-4-yl)ethyl guanidine] | – | – | – | – | – | no effect on the H1 -activity | marked decrease in H2 -activity, both on the atrium and on the fundus | – | EC50 [1]: 12.6 µM; Emax [1, 12]: 50%; EC50 [2]: 15.8 µM; Emax [2, 13]: 80%; Kb [3]: 0.398 µM
N=C(NCCCc1c[nH]cn1)NCCOC(c1ccccc1)c1ccccc1 [III, N-[2-(diphenylmethoxy)ethyl]-N'-[3-(imidazol-4-yl)propyl] guanidine] | 1.58 | 40 | 3.16 | 90 | 0.0316 | most potent H1 -antagonists of this series of impromidine analogues | – | 0.0251 | change in intrinsic activity on the gastric fundus, in words [1, 14]: remarkable decrease in intrinsic activity; change in pD2 on the gastric fundus, in words [1, 14]: less pronounced; H1 potency relative to the starting compound, trachea ([5]; guinea-pig trachea, versus sulphur starting compound (I)): 25 times; decrease in H2-agonism, atrium, versus compound I ([2]; atrium, sulphur of compound I replaced by oxygen): 20 fold; H1 potency relative to the starting compound, ileum ([3]; guinea-pig ileum, versus sulphur starting compound (I)): ten times as potent as the starting compound
Cc1ccc(C(SCCNC(=N)NCCCc2c[nH]cn2)c2ccccc2)cc1 (stereo not drawn) [IV, N-[3-(imidazol-4-yl)propyl]-N'-2-[α-phenyl-4-methylbenzylthio]ethyl guanidine] | – | – | 1.26 | 80 | 0.398 | only little or no effect at all on the H1 -antagonism | strong decrease in H2 -activity | – | –
Cc1[nH]cnc1CSCCNC(=N)NCCCc1c[nH]cn1 [Impromidine, N-[2-(5-methylimidazol-4-ylmethylthio)ethyl]-N'-[3-(imidazol-4-yl)propyl]guanidine, reference compound] | – | – | – | – | – | – | – | – | EC50 [1]: 0.00316 µM; Emax [1, 12]: 100%; potency relative to histamine (histamine H2 [6]; dependent on the used test system, Proc. VIIIth Internat. Symp. Med. Chem. Uppsala 1985): 5-800 times; stimulation of gastric acid secretion, in words (histamine H2 [6]; drawback for clinical use): relatively high potency in stimulating the gastric acid secretion; histamine H2-agonist character, in words (histamine H2 [6]; literature): specific and the most potent histamine H2 -agonist; also recorded: either behaves like a partial or like a complete agonist; Kb [3]: 3.16 µM
N=C(NCCc1c[nH]cn1)NCCC(c1ccccc1)c1ccccc1 [VIII, N-(3.3-diphenylpropyl)-N'-[2-(imidazol-4-yl)ethyl] guanidine] | 10 | 0 | 2.51 | 90 | 0.631 | almost as potent H1 -antagonists as compound I | – | – | H2-activity on the atrium, comparison in words ([2]; guinea-pig right atrium): remarkable high potency on the guinea-pig right atrium
NC(=NCCCc1c[nH]cn1)NCCSCc1ccccc1 [XII, reference compound] | 0.0251 | 100 | 0.0631 | 100 | 3.16 | no change in H1 -activity | – | – | decrease in H2-activity, gastric fundus, versus impromidine ([1]; gastric fundus, 5-methylimidazole of impromidine replaced by phenyl): 8 fold; decrease in H2-activity, atrium, versus impromidine ([2]; guinea-pig atrium, 5-methylimidazole of impromidine replaced by phenyl): 4 fold
CN(C)CCCSC(=N)N [dimaprit, reference compound] | – | – | – | – | – | – | – | – | effect on resting state and histamine induced contractions of the trachea ([5]; up to 10^-3 M): neither effect on the resting state of the organ nor on the histamine induced contractions
